Assay results as given in PubChem BioAssay (NCI).
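Assay format: 96-well plates, 48-hour exposure. The concentration for full growth arrest is given as TGI.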 Where a SMILES comes first, the peptide text is derived from it. [ ]: non-standard residue; d: D form.

Key:
Assay in all cases: NCI tumour cell line growth inhibition, 48 h
SNB-19 CNS = tested on: SNB-19 CNS
LOX IMVI melanoma = tested on: LOX IMVI melanoma
OVCAR-8 ovarian = tested on: OVCAR-8 ovarian
IGROV1 ovarian = tested on: IGROV1 ovarian
HOP-62 NSCLC = tested on: HOP-62 NSCLC
HCT-116 colon = tested on: HCT-116 colon
K-562 leukemia = tested on: K-562 leukemia
OVCAR-4 ovarian = tested on: OVCAR-4 ovarian
HT29 colon = tested on: HT29 colon
SK-OV-3 ovarian = tested on: SK-OV-3 ovarian
KM12 colon = tested on: KM12 colon
MOLT-4 leukemia = tested on: MOLT-4 leukemia
M19-MEL melanoma = tested on: M19-MEL melanoma
HOP-92 NSCLC = tested on: HOP-92 NSCLC
NCI-H522 lung = tested on: NCI-H522 lung
SN12C renal = tested on: SN12C renal
SN12K1 renal = tested on: SN12K1 renal
NCI/ADR-RES ovarian = tested on: NCI/ADR-RES ovarian
OVCAR-5 ovarian = tested on: OVCAR-5 ovarian
OVCAR-3 ovarian = tested on: OVCAR-3 ovarian
UACC-257 melanoma = tested on: UACC-257 melanoma
UO-31 renal = tested on: UO-31 renal
U251 CNS = tested on: U251 CNS
XF 498 CNS = tested on: XF 498 CNS
UACC-62 melanoma = tested on: UACC-62 melanoma
HL-60(TB) leukemia = tested on: HL-60(TB) leukemia
COLO 205 colon = tested on: COLO 205 colon
A549 NSCLC = tested on: A549 NSCLC
SNB-75 CNS = tested on: SNB-75 CNS
NCI-H226 lung = tested on: NCI-H226 lung
SK-MEL-2 melanoma = tested on: SK-MEL-2 melanoma
MCF7 breast = tested on: MCF7 breast
SNB-78 CNS = tested on: SNB-78 CNS
RXF 393 renal = tested on: RXF 393 renal
A498 renal = tested on: A498 renal
SF-539 CNS = tested on: SF-539 CNS
SK-MEL-5 melanoma = tested on: SK-MEL-5 melanoma
SW-620 colon = tested on: SW-620 colon
DMS 273 small cell lung = tested on: DMS 273 small cell lung
CCRF-CEM leukemia = tested on: CCRF-CEM leukemia
EKVX NSCLC = tested on: EKVX NSCLC
MALME-3M melanoma = tested on: MALME-3M melanoma
KM20L2 colon = tested on: KM20L2 colon
HCT-15 colon = tested on: HCT-15 colon
SF-268 CNS = tested on: SF-268 CNS
DLD-1 colon = tested on: DLD-1 colon
HOP-18 NSCLC = tested on: HOP-18 NSCLC
SF-295 CNS = tested on: SF-295 CNS
P388 leukemia = tested on: P388 leukemia
RPMI-8226 leukemia = tested on: RPMI-8226 leukemia
SK-MEL-28 melanoma = tested on: SK-MEL-28 melanoma
HCC-2998 colon = tested on: HCC-2998 colon
P388/ADR leukemia = tested on: P388/ADR leukemia
NCI-H460 lung = tested on: NCI-H460 lung
NCI-H23 lung = tested on: NCI-H23 lung

Measured: TGI

CC(C)C[C@H](NC(=O)[C@H](CC(C)C)NC(=O)[C@@H](Cc1c[nH]c2ccccc12)NC(=O)[C@H](Cc1ccccc1)NC(=O)[C@@H](Cc1c[nH]c2ccccc12)NC(=O)[C@H](CCC(N)=O)NC(=O)[C@H](CCC(N)=O)NC(=O)[C@H]1CCCN1C(=O)[C@@H](N)CCCCN)C(N)=O (H-K[dP]QQ[dW]F[dW]LL-NH2)
> 100 µM: all assays above
